Data reported in patent publication US9938273B2 (Plexxikon Inc., priority 2015, dated 2018).

What was measured:
c-KIT = target: T1, c-KIT (Homo sapiens, UniProt P10721); experiment: AlphaScreen kinase assay with recombinant enzyme, c-KIT; type: biochemical; conditions: 100ATP, 8pt, GMean
T1 construct: purchased Millipore 14-559K
Experimental: In order to determine the effect of compounds on FLT3 catalytic activity, kinase assays using recombinant enzymes and AlphaScreen® technology have been established. The catalytic activity of c-kit activity was also measured to determine selectivity of the compounds. When the kinases are catalytically active, they phosphorylate a biotinylated peptide substrate on tyrosine residues. Using AlphaScreen® technology, the ability of the compounds to affect the catalytic activity of the kinases can be measured quantitatively. The peptide substrate is immobilized by the AlphaScreen® Streptavidin Donor beads and, upon phosphorylation by a tyrosine kinase, can bind to AlphaScreen® Anti-Phosphotyrosine (PY20) Acceptor beads. Upon excitation of these beads with laser light at 680 nm, singlet oxygen is produced. This singlet oxygen is rapidly quenched, unless the AlphaScreen® Anti-Phosphotyrosine (PY20) Acceptor beads are in close proximity, in which case a proximity signal can be measured at 580 nm. In the presence of catalytic activity, there is a very strong proximity signal. Selective kinase inhibitors affect a decrease in this proximity signal through a decrease in tyrosine phosphorylation of the peptide substrate.
The assay was performed as summarized below.
Poly (Glu4-Tyr) Peptide, biotin conjugate [Biotin-GG(EEEEY)10EE] (SEQ ID NO: 4)
Final concentration=30 nM
Final concentration for IC50 determination=10 μM (FLT3-D835Y or FLT3-ITD) or 100 μM (c-KIT)
AlphaScreen® Phosphotyrosine (PY20) Assay Kit
Final concentration=10 μg/mL
Dilute compounds in DMSO to 20× final concentration.
Add 1 μl of compound to each well of 384 well reaction plate (Perkin Elmer #6005359).
Mix enzyme and Poly (Glu4-Tyr) Peptide substrate at 1.33× final concentration in assay buffer.
Mix ATP at 5× final concentration in assay buffer.
Add 15 μL enzyme/substrate mixture to the reaction plate.
Add 4 μL of ATP to the reaction plate.
Mix Streptavidin Donor beads at 6× final concentration in Stop/Detection buffer.
Add 5 μL Streptavidin Donor beads to the reaction plate. Centrifuge 1 minute, shake to mix, and incubate at room temperature for 20 minutes.
Mix Anti-Phosphotyrosine (PY20) Acceptor beads at 6× final concentration in Stop/Detection buffer.
Add 5 μL Anti-Phosphotyrosine (PY20) beads to the reaction plate.
Centrifuge 1 minute, shake to mix, and incubate at room temperature for 60 minutes.
Read plate on Wallac EnVision™ 2103 Multilabel Reader.

[1] = target: T2, BA/F3-FLT3-ITD + D835Y cells (Homo sapiens, UniProt P36888, D835Y, cells depend on it, form not given); experiment: Cell proliferation assay (CellTiter-Glo), engineered BA/F3 cells; type: cell-based, murine; conditions: BaF3 FLT3 ITD/D835Y cells, 3d-Growth; read-out: BaF3_FLT3 ITD/D835Y 3d-Growth: IC50
T2 sequence (P36888 1-993 D835Y): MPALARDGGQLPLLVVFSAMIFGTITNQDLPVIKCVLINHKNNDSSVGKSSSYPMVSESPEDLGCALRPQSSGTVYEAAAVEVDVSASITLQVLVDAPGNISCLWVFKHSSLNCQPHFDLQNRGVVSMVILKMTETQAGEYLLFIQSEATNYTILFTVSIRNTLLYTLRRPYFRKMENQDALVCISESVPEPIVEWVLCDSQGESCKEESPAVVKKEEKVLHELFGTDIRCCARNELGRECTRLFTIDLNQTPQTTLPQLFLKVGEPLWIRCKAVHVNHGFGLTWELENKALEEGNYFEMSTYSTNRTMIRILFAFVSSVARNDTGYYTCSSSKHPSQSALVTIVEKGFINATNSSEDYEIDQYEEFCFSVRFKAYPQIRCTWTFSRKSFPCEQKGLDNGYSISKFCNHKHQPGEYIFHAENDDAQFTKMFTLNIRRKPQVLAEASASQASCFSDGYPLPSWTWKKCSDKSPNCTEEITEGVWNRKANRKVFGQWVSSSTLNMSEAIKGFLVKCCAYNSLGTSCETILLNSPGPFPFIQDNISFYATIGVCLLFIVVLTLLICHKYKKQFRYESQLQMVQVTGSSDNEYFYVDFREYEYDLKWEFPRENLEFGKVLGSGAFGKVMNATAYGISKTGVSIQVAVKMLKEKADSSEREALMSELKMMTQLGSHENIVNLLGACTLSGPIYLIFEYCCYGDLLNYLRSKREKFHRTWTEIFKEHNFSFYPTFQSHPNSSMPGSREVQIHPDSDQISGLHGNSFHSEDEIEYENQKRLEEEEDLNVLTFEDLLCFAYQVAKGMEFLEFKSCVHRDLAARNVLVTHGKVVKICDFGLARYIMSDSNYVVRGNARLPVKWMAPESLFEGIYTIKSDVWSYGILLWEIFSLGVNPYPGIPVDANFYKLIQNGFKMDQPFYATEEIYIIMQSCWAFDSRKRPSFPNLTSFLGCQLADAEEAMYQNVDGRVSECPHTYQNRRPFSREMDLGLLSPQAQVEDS
Source text: The FLT3 inhibitors may be assessed using the MOLM-14, Acute Myeloid Leukemia cell line that endogenously expresses FLT3 ITD or derivatives of the human FLT3 AML cell line which acquired the D835Y (activation loop) of F691L (gatekeeper) mutation after selection in escalating doses of the FLT3 Inhibitor AC220. FLT3 inhibitors may also be assessed using cells that are engineered to express mutant FLT3. For engineered cells, murine Ba/F3 cells were transfected with full-length FLT3 ITD/D835Y mutations. The parental BA/F3 cells are dependent upon Interleukin-3 (IL-3) for survival, and introduction of the FLT3 constructs rendered these cells dependent upon FLT3 kinase activity when cultured in the absences of IL-3. Engineered BA/F3 cell growth assays can be performed in either the […] of IL-3, to assess the compound inhibition of FLT3 or to detect the presence of off-target activity, respectively. Inhibitors of FLT3 kinase activity reduce or eliminate the FLT3 oncogenic signaling, resulting in reduced cell proliferation. This inhibition is measured as a function of compound concentration to asses IC50 values.
Cell lines used in proliferation assays are as follows in Table 3:
Cells were seeded at 1×10^4 cells per well of a 96 well cell culture plate in 50 μl of cell culture medium. Compounds were dissolved in DMSO, typically at a concentration of 0.5 mM and were serially diluted 1:3 for a total of eight points and added to the cells to final concentrations of […], 0.0041, 0.0014 and 0.00046 μM in 100 μl cell culture medium (final concentration 0.2% DMSO). […] The cells were incubated at 37° C., 5% CO2 for three days. CellTiter-Glo Buffer (Promega Cell Viability Assay catalog #G7573) and substrate were equilibrated to room temperature, and enzyme/substrate Recombinant Firefly Luciferase/Beetle Luciferin was reconstituted. The cell plates were equilibrated to room temperature for 30 minutes, then lysed by addition of an equivalent volume of the Celltiter-Glo Reagent. The plate was mixed for 10 minutes on a plate shaker to lyse the cells. The plates were read on a Tecan M1000 using Luminescence protocol modified to read 0.1 s per well. The luminescence reading assesses the ATP content, which correlates directly with cell number such that the reading as a function of compound concentration was used to determine the IC50 value.

T1 sequence (P10721 26-976): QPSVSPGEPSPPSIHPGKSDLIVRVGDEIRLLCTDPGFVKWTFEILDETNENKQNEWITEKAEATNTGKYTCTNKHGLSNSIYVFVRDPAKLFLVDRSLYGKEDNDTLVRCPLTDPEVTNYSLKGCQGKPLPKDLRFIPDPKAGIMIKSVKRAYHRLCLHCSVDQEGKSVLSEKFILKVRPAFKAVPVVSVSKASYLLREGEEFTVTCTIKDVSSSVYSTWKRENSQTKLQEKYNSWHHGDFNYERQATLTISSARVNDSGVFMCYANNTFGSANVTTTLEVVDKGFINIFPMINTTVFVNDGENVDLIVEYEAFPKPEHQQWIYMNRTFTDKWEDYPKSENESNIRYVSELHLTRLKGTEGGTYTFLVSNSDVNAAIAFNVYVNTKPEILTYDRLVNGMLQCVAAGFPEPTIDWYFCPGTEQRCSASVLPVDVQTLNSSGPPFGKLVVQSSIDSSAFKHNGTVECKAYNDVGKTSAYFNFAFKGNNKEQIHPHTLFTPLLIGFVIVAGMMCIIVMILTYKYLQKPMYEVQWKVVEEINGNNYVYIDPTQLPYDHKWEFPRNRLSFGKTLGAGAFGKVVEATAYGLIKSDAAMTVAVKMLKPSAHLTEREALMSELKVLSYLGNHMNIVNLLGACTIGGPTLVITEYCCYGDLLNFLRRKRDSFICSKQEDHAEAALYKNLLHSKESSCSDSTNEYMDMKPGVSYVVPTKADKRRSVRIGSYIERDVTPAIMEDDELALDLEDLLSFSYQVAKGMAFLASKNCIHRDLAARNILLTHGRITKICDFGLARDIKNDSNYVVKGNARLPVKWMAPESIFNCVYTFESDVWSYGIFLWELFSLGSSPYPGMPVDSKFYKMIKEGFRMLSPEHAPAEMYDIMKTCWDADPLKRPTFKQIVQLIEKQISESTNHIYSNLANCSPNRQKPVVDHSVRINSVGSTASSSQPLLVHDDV

Row | Structure (SMILES) | IC50 (c-KIT) [µM] | GI50 [1] [µM]
1 | CC(C)(C#N)NC(=O)c1cccc(-c2cnc3[nH]c(-c4cnn(C(F)F)c4)cc3c2)n1 [Compound P-0164, N-(2-cyanopropan-2-yl)-6-(2-(1-(difluoromethyl)-1H-pyrazol-4-yl)-1H-pyrrolo[2,3-b]pyridin-5-yl)picolinamide] | 50 to 100 | –
2 | CN(CCC#N)C(=O)c1cccc(-c2cnc3[nH]c(-c4ccccc4)cc3c2)n1 [Compound P-0119, N-(2-cyanoethyl)-N-methyl-6-(2-phenyl-1H-pyrrolo[2,3-b]pyridin-5-yl)pyridine-2-carboxamide] | 50 to 100 | 0.0001 to 10
3 | CC(C)(C#N)CNC(=O)c1cccc(-c2cnc3[nH]c(-c4ccccc4)cc3c2)n1 [Compound P-0100, N-(2-cyano-2-methyl-propyl)-6-(2-phenyl-1H-pyrrolo[2,3-b]pyridin-5-yl)pyridine-2-carboxamide] | 10 to 50 | 0.0001 to 10
4 | N#CC1CCN(S(=O)(=O)c2cccc(-c3cnc4[nH]c(-c5ccccc5)cc4c3)n2)C1 (centres unmarked) [Compound P-0121, 1-[[6-(2-phenyl-1H-pyrrolo[2,3-b]pyridin-5-yl)-2-pyridyl]sulfonyl]pyrrolidine-3-carbonitrile] | – | 0.0001 to 10
5 | N#C[C@H]1CCN(C(=O)c2cccc(-c3cnc4[nH]c(-c5ccccc5)cc4c3)n2)C1 [Compound P-0117, (3S)-1-[6-(2-phenyl-1H-pyrrolo[2,3-b]pyridin-5-yl)pyridine-2-carbonyl]pyrrolidine-3-carbonitrile] | 0.0001 to 10 | 0.0001 to 10
6 | CN[C@@H]1CCN(C(=O)c2ccc(-c3cnc4[nH]c(-c5ccccc5)cc4c3)s2)C1 [Compound P-0106, [(3R)-3-(methylamino)pyrrolidin-1-yl]-[5-(2-phenyl-1H-pyrrolo[2,3-b]pyridin-5-yl)-2-thienyl]methanone] | 0.0001 to 10 | 0.0001 to 10
7 | CC(C)(C#N)NC(=O)c1cccc(-c2cnc3[nH]c(-c4ccccc4)cc3c2)n1 [Compound P-0118, N-(1-cyano-1-methyl-ethyl)-6-(2-phenyl-1H-pyrrolo[2,3-b]pyridin-5-yl)pyridine-2-carboxamide] | 50 to 100 | 0.0001 to 10
8 | CC(C)(C#N)CNC(=O)c1cccc(-c2cnc3[nH]c(-c4ccccc4)c(Br)c3c2)n1 [Compound P-0126, 6-(3-bromo-2-phenyl-1H-pyrrolo[2,3-b]pyridin-5-yl)-N-(2-cyano-2-methyl-propyl)pyridine-2-carboxamide] | – | 0.0001 to 10
9 | O=C(c1cccc(-c2cnc3[nH]c(-c4ccccc4)cc3c2)n1)N1CCC(F)(F)C1 [Compound P-0093, (3,3-difluoropyrrolidin-1-yl)-[6-(2-phenyl-1H-pyrrolo[2,3-b]pyridin-5-yl)-2-pyridyl]methanone] | 50 to 100 | 0.0001 to 10
10 | N#CC1(F)CCN(C(=O)c2cccc(-c3cnc4[nH]c(-c5ccccc5)cc4c3)n2)C1 (centres unmarked) [Compound P-0115, 3-fluoro-1-[6-(2-phenyl-1H-pyrrolo[2,3-b]pyridin-5-yl)pyridine-2-carbonyl]pyrrolidine-3-carbonitrile] | 50 to 100 | 0.0001 to 10
11 | N#C[C@@H]1CCN(C(=O)c2cccc(-c3cnc4[nH]c(-c5ccccc5)cc4c3)n2)C1 [Compound P-0122, (3R)-1-[6-(2-phenyl-1H-pyrrolo[2,3-b]pyridin-5-yl)pyridine-2-carbonyl]pyrrolidine-3-carbonitrile] | – | 0.0001 to 10
12 | N#CCCNC(=O)c1cccc(-c2cnc3[nH]c(-c4ccccc4)cc3c2)n1 [Compound P-0099, N-(2-cyanoethyl)-6-(2-phenyl-1H-pyrrolo[2,3-b]pyridin-5-yl)pyridine-2-carboxamide] | 50 to 100 | 0.0001 to 10
13 | N#CC1CCN(C(=O)c2cccc(-c3cnc4[nH]c(C5=CCCCC5)cc4c3)n2)C1 (centres unmarked) [Compound P-0120, 1-[6-[2-(cyclohexen-1-yl)-1H-pyrrolo[2,3-b]pyridin-5-yl]pyridine-2-carbonyl]pyrrolidine-3-carbonitrile] | 0.0001 to 10 | 0.0001 to 10
14 | CC(C)(C#N)CNC(=O)c1cccc(-c2cnc3[nH]c(C4=CCCCC4)cc3c2)n1 [Compound P-0123, N-(2-cyano-2-methyl-propyl)-6-[2-(cyclohexen-1-yl)-1H-pyrrolo[2,3-b]pyridin-5-yl]pyridine-2-carboxamide] | 0.0001 to 10 | 0.0001 to 10
15 | O=C(c1cccc(-c2cnc3[nH]c(-c4ccccc4)cc3c2)n1)N1CCC(n2ccnc2)C1 (centres unmarked) [Compound P-0097, (3-imidazol-1-ylpyrrolidin-1-yl)-[6-(2-phenyl-1H-pyrrolo[2,3-b]pyridin-5-yl)-2-pyridyl]methanone] | 0.0001 to 10 | 0.0001 to 10
16 | CC(C)(C#N)CNC(=O)c1cccc(-c2cnc3[nH]c(-c4ccccc4)c(I)c3c2)n1 [Compound P-0127, N-(2-cyano-2-methyl-propyl)-6-(3-iodo-2-phenyl-1H-pyrrolo[2,3-b]pyridin-5-yl)pyridine-2-carboxamide] | – | 0.0001 to 10
17 | N#CCCNC(=O)c1cccc(-c2cnc3[nH]c(-c4ccccc4)c(Cl)c3c2)n1 [Compound P-0125, 6-(3-chloro-2-phenyl-1H-pyrrolo[2,3-b]pyridin-5-yl)-N-(2-cyanoethyl)pyridine-2-carboxamide] | – | 0.0001 to 10
18 | N#CC1(NC(=O)c2cccc(-c3cnc4[nH]c(-c5ccccc5)cc4c3)n2)CC1 [Compound P-0111, N-(1-cyanocyclopropyl)-6-(2-phenyl-1H-pyrrolo[2.3-b]pyridin-5-yl]pyridine-2-carboxamide] | – | 0.0001 to 10
